Active and inactive are the calls of the source. The rule behind the calls is not given here.
Experiments:
Equus caballus [1] = species on record: Equus caballus; experiment: Inhibition of horse erythrocytes trypsin like activity of beta2-20S proteasome using z-ARR-AMC as substrate at 100 uM measured for 60 mins by fluorescence assay
[2] = Chemical stability of the compound under aqueous condition; format: physicochemical; settings: buffer
[3] = Cytotoxicity against mouse NIH/3T3 cells assessed as cell viability at 1 to 40 umol/L after 2 hrs by MTT assay; format: cell-based, NIH3T3; settings: read-out: Activity
[4] = (§1) Cytotoxicity against mouse NIH/3T3 cells assessed as cell viability at 80 umol/L after 2 hrs by MTT assay; format: cell-based, NIH3T3; settings: NIH/3T3 cells, read-out: Activity
[5] = molecular target: Proteasome subunit beta type-2 (Mus musculus) (UniProt Q9R1P3); experiment: Inhibition of trypsin like activity of beta2-20S proteasome in mouse NIH-3T3 cells at 2 times IC50; format: cell-based; settings: NIH3T3
[6] = Inhibition of horse erythrocytes trypsin like activity of beta2-20S proteasome using z-ARR-AMC as substrate measured for 60 mins by fluorescence assay; parameters: species or system Equus caballus
Saccharomyces cerevisiae = experiment: Inhibition of yeast 20S proteasome
Equus caballus [7] = species on record: Equus caballus; experiment: Inhibition of horse erythrocytes chymotrypsin like activity of beta5-20S proteasome using suc-LLVY-AMC as substrate at 100 uM measured for 60 mins by fluorescence assay
Equus caballus [8] = species on record: Equus caballus; experiment: Inhibition of horse erythrocytes caspase like activity of beta1-20S proteasome using z-LLE-AMC as substrate at 100 uM measured for 60 mins by fluorescence assay
[9] = Chemical stability of the compound under aqueous condition assessed as drug transformation; format: physicochemical; settings: buffer
[10] = Cytotoxicity against mouse NIH/3T3 cells assessed as cell viability at 20 umol/L after 2 hrs by MTT assay; format: cell-based, NIH3T3; settings: read-out: Activity
NIH3T3 [11] = experiment: Cytotoxicity against mouse NIH/3T3 cells assessed as cell viability after 2 hrs by MTT assay; format: cell-based; settings: nih3t3, 2 h
NIH3T3 [12] = experiment: as §1; format: cell-based; settings: nih3t3, 2 h, 80 µM
[13] = Cytotoxicity against mouse NIH/3T3 cells assessed as cell viability at 40 umol/L after 2 hrs by MTT assay; format: cell-based, NIH3T3; settings: read-out: Activity
[14] = Cytotoxicity against mouse NIH/3T3 cells assessed as cell viability at 10 umol/L after 2 hrs by MTT assay; format: cell-based, NIH3T3; settings: read-out: Activity
NIH3T3 [15] = experiment: Cytotoxicity against mouse NIH/3T3 cells assessed as cell viability at 10 to 100 umol/L after 2 hrs by MTT assay; format: cell-based; settings: nih3t3, 2 h
[16] = Cytotoxicity against mouse NIH/3T3 cells assessed as cell viability at 0.5 to 10 umol/L after 2 hrs by MTT assay; format: cell-based, NIH3T3; settings: read-out: Activity

Sequence of Proteasome subunit beta type-2 (Mus musculus) (Q9R1P3 whole entry): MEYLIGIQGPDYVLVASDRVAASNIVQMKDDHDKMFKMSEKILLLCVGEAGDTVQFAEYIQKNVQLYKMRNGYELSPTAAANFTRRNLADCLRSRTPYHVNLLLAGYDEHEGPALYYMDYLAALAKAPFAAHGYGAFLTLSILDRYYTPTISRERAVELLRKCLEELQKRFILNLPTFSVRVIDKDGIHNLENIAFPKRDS

SMILES	inhibition (Equus caballus [1])	IC50 [6]	inhibition (Saccharomyces cerevisiae)	inhibition (Equus caballus [7])	inhibition (Equus caballus [8])	other results
CCCC[Te]c1ccccc1[C@@H](C)OC	inactive	–	–	–	–	–
CCCC[Te]c1ccccc1[C@H](C)OC	inactive	–	–	–	–	–
CCCC[Te](Br)(Br)c1ccccc1COC	90%	4 µM	inactive	inactive	inactive	Stability [2]: Stable; viability at 2 h [3]: 60%; viability at 2 h, 80 µM [4]: > 50%; inhibition [5]: inactive
CCCC[Se]1(Cl)c2ccccc2[C@@H](C)[O+]1C (stereo partly drawn)	> 50%	34 µM	inactive	inactive	inactive	–
CCCC[Se]c1ccccc1[C@H](C)OC	inactive	–	–	–	–	–
CCCC[Se]1(Cl)c2ccccc2[C@H](C)[O+]1C (stereo partly drawn)	> 50%	32 µM	inactive	inactive	inactive	–
CCCC[Se]1(Br)c2ccccc2[C@H](C)[O+]1C (stereo partly drawn)	> 50%	19 µM	inactive	inactive	inactive	–
CCCC[Se]1(Br)c2ccccc2[C@@H](C)[O+]1C (stereo partly drawn)	> 50%	26 µM	inactive	inactive	inactive	–
CCCC[Se]1(Br)c2ccccc2C[O+]1C.[Br-] (stereo not drawn)	90%	16 µM	inactive	inactive	inactive	Stability [9]: Unstable; viability at 2 h, 20 µM [10]: 75%; inhibition [5]: Active
CCCC[Se]c1ccccc1COC	inactive	–	–	–	–	–
CCCC[Se]1(Cl)c2ccccc2C[O+]1C.[Cl-] (stereo not drawn)	90%	35 µM	inactive	inactive	inactive	Stability [9]: Unstable; Activity (NIH3T3 [11]): Dose-dependent effect; Activity (NIH3T3 [12]): Non-toxic; viability at 2 h, 40 µM [13]: 40%; viability at 2 h, 10 µM [14]: 50%; inhibition [5]: Active
CCCC[Te](Cl)(Cl)c1ccccc1COC	90%	3.5 µM	inactive	inactive	inactive	Stability [2]: Stable; Activity (NIH3T3 [15]): Non-toxic; viability at 2 h [16]: 60%; inhibition [5]: inactive
CCCC[Te](Cl)(Cl)c1ccccc1[C@@H](C)OC	> 50%	4 µM	inactive	inactive	inactive	–
CCCC[Te](Cl)(Cl)c1ccccc1[C@H](C)OC	> 50%	5.5 µM	inactive	inactive	inactive	–
CCCC[Se]c1ccccc1[C@@H](C)OC	inactive	–	–	–	–	–
CCCC[Te](Br)(Br)c1ccccc1[C@@H](C)OC	90%	8 µM	inactive	inactive	inactive	–
CCCC[Te](Br)(Br)c1ccccc1[C@H](C)OC	> 50%	15 µM	inactive	inactive	inactive	–
CCCC[Te]c1ccccc1COC	inactive	–	–	–	–	–

From ChEMBL document CHEMBL3112526, “20S proteasome as novel biological target for organochalcogenanes” (Eur J Med Chem, 2014)
